Assay results from patent publication US20070054943A1, “Therapeutic agent for keratoconjunctival disorder” (SANTEN PHARMACEUTICAL CO., LTD., priority 2004, published 2007).
Entries after “also recorded” stand apart in the source; their conditions may differ.

Tested on: corneal disorder models
Assay: Test for therapeutic effect on corneal damage (corneal disorder models, exorbital lacrimal gland removal, fluorescein staining score)
Format: in vivo, male SD rats
Conditions: for Improvement ratio (%): {(control)-(compound)}/{(control)-(normal eye)}x100; for Mean value of total scores: fluorescein staining score (0-3 each for upper, middle, lower cornea), mean of 8 cases, normal eye 2.9, control 6.1; for effect on corneal damage (in words): rat corneal disorder models, instillation of rosiglitazone 0.02% or pioglitazone hydrochloride 0.01%, 6 times a day for 14 days
Experimental: Test For Therapeutic Effect On Corneal Damage
Using male SD rats, in accordance with the method of Fujihara et al. (Invest. Ophthalmol. Vis. Sci. 42 (1) 96-100 (2001)), corneal disorder models were produced. After the production of the corneal disorder models, the improvement ratio of a corneal damage was evaluated by a method (Journal of the eye 21 (1) : 87-90 (2004)) modified from the method of Miyata et al. (Japanese Review of Clinical Ophthalmology 48 (2) : 183-188 (1994)).
A male SD rat was systemically anesthetized by an administration of Nembutal. Subsequently the exorbital lacrimal gland was removed and a corneal damage was induced over a period of 2 months.
Then, the present compound (rosiglitazone or pioglitazone hydrochloride) was administered as follows.
A physiological saline solution of rosiglitazone (0.02%) was instilled into both eyes 6 times a day for 14 days (one group consisting of 8 animals).
A physiological saline solution of pioglitazone hydrochloride (0.01%) was instilled into both eyes 6 times a day for 14 days (one group consisting of 8 animals).
In a control group, physiological saline was instilled into both eyes 6 times a day for 14 days (one group consisting of 8 animals).
Fourteen days after the start of instillation, the damaged parts of the cornea were stained with fluorescein. For each of the upper, middle and lower parts of the cornea, the degree of fluorescein staining was evaluated by scoring according to the criteria shown below and the improvement ratio of corneal damage was calculated from the mean value of the total scores for each of the above-mentioned parts.
• 0: No punctate staining • 1: Scattered staining (punctate staining being separated) • 2: Moderate staining (a part of punctate staining being adjacent) • 3: Heavy staining (punctate staining being barely separated) (Results)
By taking the mean value of the total scores for the control group (physiological saline) as a standard (improvement ratio: 0%) and according to the calculation formula shown below, the improvement ratios for rosiglitazone (0.02%) instillation group and pioglitazone (0.01%) instillation group were calculated, which are shown in Table 1. The mean value of the scores is a mean of those of 8 cases, respectively. Improvement ratio(%)={(control)−(the present compound)}/damage degree×100
Damage degree=(control)−(normal eye)

[1] = 0.01% (pioglitazone hydrochloride) in physiological saline instilled into both eyes 6 times a day for 14 days
[2] = 0.02% in physiological saline instilled into both eyes 6 times a day for 14 days

With `CCc1ccc(CCOc2ccc(CC3SC(=O)NC3=O)cc2)nc1` (stereo not shown) [Pioglitazone, 5-[[4-[2-(5-ethyl-2-pyridinyl)ethoxy]phenyl]methyl]-2,4-thiazolidinedione] the “Improvement ratio (%)” value [1] was 62.5%, the “Mean value of total scores” value [1] was 4.1 and the “effect on corneal damage (in words)” value (listed as pioglitazone) was “significantly improve a corneal damage”. For the same compound, the “effect on corneal damage (in words)” value (listed as pioglitazone hydrochloride) was “excellent improving effect”.
In the case of `CN(CCOc1ccc(CC2SC(=O)NC2=O)cc1)c1ccccn1` (stereo not shown) [Rosiglitazone, 5-[p-[2-(methyl-2-pyridylamino)ethoxy]benzyl]-2,4-thiazolidinedione], the “Improvement ratio (%)” value [2] is reported as 68.7%, the “Mean value of total scores” value [2] is reported as 3.9 and the “effect on corneal damage (in words)” value is reported as “excellent improving effect; also recorded: significantly improve a corneal damage”.
